From PubChem BioAssay AID2060510 (Molecular Pharmacology Branch, DTP, NCI, 2025)
Where “and” joins values, the source holds several entries; their conditions need not be identical. Equal entries are not always repeated. Each block holds one molecule with its values, some of them ahead of it.

System: 439559-082-T-J2-PDC spheroids viability
Experiment: Anticancer human tumor 439559-082-T-J2-PDC patient-derived colon adenocarcinoma cell line growth inhibition [GQUAD]
Conditions: for viability, T/C: stronger effect = lower value
Description: DNA G-quadruplex Stabilizer Agents in Combinations in Complex Spheroids
A high-throughput screen of multi-cell type tumor spheroids was designed to identify active combinations of DNA G-quadruplex stabilizer agents and targeted small molecules. Complex spheroids include a stromal component modeled by human endothelial cells (HUVEC) and fibroblasts modeled by human mesenchymal stem cells (MSCs). The concentration ranges selected for each drug and investigational agent were based upon clinically achievable concentrations if the clinical Cmax of the agent was known.
Compounds. The drugs and investigational agents: pidnarulex (CX-5461; NSC782164), APTO-253 (NSC789042), BRACO-19 (NSC847499), peposertib (NSC802822), ceralasertib (NSC780249), elimusertib (NSC800525), camonsertib (NSC841442), AZD-1390 (NSC803789), olaparib (NSC753686), talazoparib (NSC767125), ART-558 (NSC835418), sotorasib (NSC818433), MRTX-1133 (NSC836407), SN-38 (NSC673596), topotecan (NSC609699), etoposide (NSC141540), doxorubicin (NSC123127), gemcitabine (NSC613327), 5-fluorouracil (NSC19893), paclitaxel (NSC125973), vemurafenib (NSC761431), panobinostat (NSC761190), R-306465 (JNJ-16241199; NSC773264), adavosertib (NSC754352), TP-3654 (NSC805149), carboplatin (NSC241240), KSQ-4279 (NSC840948), and staurosporine (NSC755774) were obtained from the National Cancer Institute (NCI) Developmental Therapeutics Program Chemical Repository (34). The FDA-approved anticancer drug set is available from the NCI Developmental Therapeutics Program. […] The stock solutions were prepared in dimethyl sulfoxide (DMSO, Sigma-Aldrich, St. Louis, MO, cat. D2650) at 800-fold the tested concentration and stored at -70 degrees C prior to their use. All drugs and investigational agents were tested over a range starting from a high concentration at or near the clinical Cmax and decreasing in half-log increments. If the clinical Cmax for an agent had not been determined, the highest concentration tested was 10 microM.
2.3 Cell Culture. All cells were maintained in an incubator at 37 degrees C and 5% CO2 with 95% humidity. The PDC lines were cultured according to standard operating procedures established by the NCI PDMR. All PDCs were thawed and cultured in Matrigel-coated flasks prepared with a working solution of 1X Ham's F-12 nutrient mix, without supplementation (Invitrogen, cat. 11765054), 100 U/mL penicillin-streptomycin (Invitrogen, cat. 15140122), and 2.5% Matrigel (Corning Inc., cat. 354248) for the first three passages. The 857933-349-R-J2-PDC line was cultured in 6C/Colon 1B media, which includes advanced DMEM/F-12 (Thermo Fisher Scientific, cat. 12634028), 10 mM HEPES (Thermo Fisher Scientific, cat. 15630080), 1X GlutaMAX supplement (Thermo Fisher Scientific, cat. 35050061), 0.1 mg/mL primocin (InvivoGen, cat. ant-pm-2), 10% defined fetal bovine serum, heat inactivated (HyClone Laboratories Inc., cat. SH30070.03HI), 50% L-WRN conditioned media (ATCC, cat. CRL-3276), 1.25 mM N-Acetyl-L-cysteine (Sigma-Aldrich, cat. A9165), 10 mM nicotinamide (Sigma-Aldrich, cat. N0636), 1X B-27 supplement (Thermo Fisher Scientific, cat. 17504044), 1X N-2 supplement (Thermo Fisher Scientific, cat. 17502048), 10 microM Y-27632 dihydrochloride (Tocris Bioscience, cat. 1254), and 50 ng/mL human EGF recombinant protein (Thermo Fisher Scientific, cat. PHG0311). The 485176-168-R4-J1-PDC line was cultured in Panc media, which includes all 6C/Colon 1B media components plus 100 ng/mL human FGF-10 (Thermo Fisher Scientific, cat. 100-26), 500 nM SB-431542 (Selleckchem, cat. S1067), and gastrin (Tocris, cat. 3006).
[…]
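Also: spheroids exposed to the agents for 7 days before readout.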
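For viability, T/C in this document: percent of luminescence signal in DMSO vehicle wells taken as 100% viability.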

IC50 (curve of compound): 0.332 µM and 2.18 µM and 2.49 µM
Structure (SMILES): CC(=O)O[C@H]1C(=O)[C@@]2(C)[C@H]([C@H](OC(=O)c3ccccc3)[C@]3(O)C[C@H](OC(=O)[C@H](O)[C@@H](NC(=O)c4ccccc4)c4ccccc4)C(C)=C1C3(C)C)[C@]1(OC(C)=O)CO[C@@H]1C[C@@H]2O
viability, T/C (compound 0.0316 µM): 97.3% and 78.7% and 84.1% | viability, T/C (compound 0.1 µM): 75.3% (2×) and 83.1% | viability, T/C (compound 0.316 µM): 55.6% and 69.5% and 90.7%

IC50 (curve of first compound, second compound 0.0316 µM): 4.05 µM | IC50 (curve of first compound, second compound 0.1 µM): 5.35 µM | IC50 (curve of first compound, second compound 0.316 µM): 7.15 µM | IC50 (curve of first compound, second compound 1 µM): 6.8 µM | IC50 (curve of first compound, second compound 3.16 µM): 4.51 µM | IC50 (curve of first compound, second compound 10 µM): 3.83 µM
Structure (SMILES): COc1cccc2c1C(=O)c1c(O)c3c(c(O)c1C2=O)CC(O)(C(=O)CO)CC3OC1CC(N)C(O)C(C)O1 (stereo not drawn) + Cc1cnc(CNC(=O)c2c(=O)c3ccc(N4CCCN(C)CC4)nc3n3c2sc2ccccc23)cn1
viability, T/C (second compound 0.0316 µM, first compound 0.0316 µM): 99% | viability, T/C (second compound 0.0316 µM, first compound 0.1 µM): 95.1% | viability, T/C (second compound 0.0316 µM, first compound 0.316 µM): 87.3% | viability, T/C (second compound 0.0316 µM, first compound 1 µM): 77.6% | viability, T/C (second compound 0.0316 µM, first compound 3.16 µM): 48.9% | viability, T/C (second compound 0.0316 µM, first compound 10 µM): 45.3% | viability, T/C (second compound 0.1 µM, first compound 0.0316 µM): 101% | viability, T/C (second compound 0.1 µM, first compound 0.1 µM): 96.7% | viability, T/C (second compound 0.1 µM, first compound 0.316 µM): 89.6% | viability, T/C (second compound 0.1 µM, first compound 1 µM): 70.3% | viability, T/C (second compound 0.1 µM, first compound 3.16 µM): 54.3% | viability, T/C (second compound 0.1 µM, first compound 10 µM): 45.3% | viability, T/C (second compound 0.316 µM, first compound 0.0316 µM): 79.9% | viability, T/C (second compound 0.316 µM, first compound 0.1 µM): 73% | viability, T/C (second compound 0.316 µM, first compound 0.316 µM): 69.6% | viability, T/C (second compound 0.316 µM, first compound 1 µM): 79.3% | viability, T/C (second compound 0.316 µM, first compound 3.16 µM): 57.2% | viability, T/C (second compound 0.316 µM, first compound 10 µM): 45.9% | viability, T/C (second compound 1 µM, first compound 0.0316 µM): 70% | viability, T/C (second compound 1 µM, first compound 0.1 µM): 73.3% | viability, T/C (second compound 1 µM, first compound 0.316 µM): 69.7% | viability, T/C (second compound 1 µM, first compound 1 µM): 63.6% | viability, T/C (second compound 1 µM, first compound 3.16 µM): 61.6% | viability, T/C (second compound 1 µM, first compound 10 µM): 44.7% | viability, T/C (second compound 3.16 µM, first compound 0.0316 µM): 71% | viability, T/C (second compound 3.16 µM, first compound 0.1 µM): 67.2% | viability, T/C (second compound 3.16 µM, first compound 0.316 µM): 65% | viability, T/C (second compound 3.16 µM, first compound 1 µM): 60.3% | viability, T/C (second compound 3.16 µM, first compound 3.16 µM): 55.3% | viability, T/C (second compound 3.16 µM, first compound 10 µM): 41.1% | viability, T/C (second compound 10 µM, first compound 0.0316 µM): 63.3% | viability, T/C (second compound 10 µM, first compound 0.1 µM): 67.7% | viability, T/C (second compound 10 µM, first compound 0.316 µM): 63.1% | viability, T/C (second compound 10 µM, first compound 1 µM): 54.2% | viability, T/C (second compound 10 µM, first compound 3.16 µM): 51% | viability, T/C (second compound 10 µM, first compound 10 µM): 44.2%

The remaining lines, values behind:

Structure (SMILES): Cc1[nH]c2ccc(F)cc2c1-c1nc2c3cccnc3c3ncccc3c2[nH]1
viability, T/C (compound 0.0316 µM): 103% [middle of 12 runs] | viability, T/C (compound 0.1 µM): 102% [middle of 12 runs] | viability, T/C (compound 0.316 µM): 100% [middle of 12 runs] | viability, T/C (compound 1 µM): 94.9% [middle of 12 runs] | viability, T/C (compound 3.16 µM): 86.4% [middle of 12 runs] | viability, T/C (compound 10 µM): 89.3% [middle of 12 runs] | IC50 (compound alone, run of 04/16/2024): > 10 µM | IC50 (compound alone, run of 04/22/2024): > 10 µM

Structure (SMILES): Cc1[nH]c2ccccc2c1CCNCc1ccc(/C=C/C(=O)NO)cc1
viability, T/C (compound 0.000999 µM): 105% and 91.6% and 99.8% | viability, T/C (compound 0.00316 µM): 94.6% and 105% and 93.3% | viability, T/C (compound 0.00999 µM): 91.2% and 92.3% and 95.4% | viability, T/C (compound 0.0316 µM): 112% and 84.7% and 91.9% | viability, T/C (compound 0.0999 µM): 110% and 81.7% and 79% | viability, T/C (compound 0.316 µM): 101% and 63.2% and 61.6% | IC50 (curve of compound): > 0.316 µM

Structure (SMILES): O=c1[nH]cc(F)c(=O)[nH]1
viability, T/C (compound 0.0316 µM): 93.1% and 96.1% and 94.6% | viability, T/C (compound 0.1 µM): 103% and 102% and 97.4% | viability, T/C (compound 0.316 µM): 85.9% and 79.7% and 88.7% | viability, T/C (compound 1 µM): 76.7% and 78.2% and 78.6% | viability, T/C (compound 3.16 µM): 79.4% and 74.2% and 76.8% | viability, T/C (compound 10 µM): 71.5% and 77.1% and 70.3% | IC50 (curve of compound): > 10 µM
